EC50, selectivity ratio and inhibition of growth data for 26 molecules are collected here from ChEMBL document CHEMBL3751841, “Synthesis of carboxyimidamide-substituted benzo[c][1,2,5]oxadiazoles and their analogs, and evaluation of biological activity against Leishmania donovani” (Medchemcomm, 2015).

A short description of series [1]: Cytotoxicity against mouse NIH/3T3 cells assessed as reduction in cell viability after 48 hrs by alamar blue dye based assay. To be noted: NIH3T3, 48 h.
Series [2] in a line: Selectivity index, ratio of EC50 for human THP1 cells to EC50 for Leishmania donovani axenic amastigotes. Type of series: toxicity, cell-based, THP-1. The following applies: THP1 cells versus Leishmania donovani axenic amastigotes, read-out: Ratio EC50.
In series [3] the test system is Leishmania donovani. Briefly: Antileishmanial activity against Leishmania donovani MHOM/SD/1962/1S-Cl2d axenic amastigotes assessed as inhibition of parasite growth after 24 hrs by alamar blue staining based fluorescent viability microplate assay. It is filed as functional, organism-based. On the technique in general: Resazurin is reduced to fluorescent resorufin, in cell work by metabolically active cells.

Series [4] has as its system Leishmania donovani. Briefly: Antileishmanial activity against luciferase expressing Leishmania donovani intracellular amastigotes infected in human THP1 cells assessed as inhibition of parasite growth after 48 hrs by Bright-glo luciferase assay. Type of series: functional, organism-based. The following applies: THP-1, 48 h.
The nature of series [5]: Selectivity index, ratio of EC50 for mouse NIH/3T3 cells to EC50 for Leishmania donovani […] amastigotes. It is filed as toxicity, cell-based. To be noted: read-out: Ratio EC50.
The subject of series [6] is Leishmania donovani. Briefly: Antileishmanial activity against Leishmania donovani MHOM/SD/1962/1S-Cl2d axenic amastigotes assessed as inhibition of parasite growth at 50 uM after 24 hrs by alamar blue staining based fluorescent viability microplate assay. Type of series: functional. The following applies: read-out: GI.
Series [7] in a line: Cytotoxicity against human THP1 cells assessed as reduction in cell viability after 48 hrs by alamar blue dye based assay. The following applies: THP-1, 48 h.
Series [8] has as its system Leishmania donovani. Briefly: Antileishmanial activity against luciferase expressing Leishmania donovani intracellular amastigotes infected in human THP1 cells assessed as inhibition of parasite growth at 5 uM after 48 hrs by Bright-glo luciferase assay. Type of series: functional. The following applies: THP-1, 48 h, read-out: GI.
Series [9] has as its system Leishmania donovani. Briefly: Antileishmanial activity against Leishmania donovani MHOM/SD/1962/1S-Cl2d axenic amastigotes assessed as inhibition of parasite growth at 5 uM after 24 hrs by alamar blue staining based fluorescent viability microplate assay. It is filed as functional. To be noted: read-out: GI.
Series [10] relates to Leishmania donovani. Briefly: Antileishmanial activity against Leishmania donovani MHOM/SD/1962/1S-Cl2d axenic amastigotes assessed as inhibition of parasite growth at 15 uM after 24 hrs by alamar blue staining based fluorescent viability microplate assay. It is filed as functional. To be noted: read-out: GI.
The test system of series [11] is Leishmania donovani. Briefly: Antileishmanial activity against Leishmania donovani MHOM/SD/1962/1S-Cl2d axenic amastigotes assessed as inhibition of parasite growth at 1 uM after 24 hrs by alamar blue staining based fluorescent viability microplate assay. Type of series: functional. To be noted: read-out: GI.
The test system of series [12] is Leishmania donovani. Briefly: Antileishmanial activity against luciferase expressing Leishmania donovani intracellular amastigotes infected in human THP1 cells assessed as inhibition of parasite growth at 1 uM after 48 hrs by Bright-glo luciferase assay. It is filed as functional. The following applies: THP-1, 48 h, read-out: GI.

Some results are limits rather than exact numbers.

Turning to `N=C(NOC(=O)Nc1cccc(Cl)c1)c1ccc2nonc2c1`, the EC50 in series [1] is more than 300 µM; in [3], 4.2 µM; in [4], 5.92 µM; in series [7] it was 79.9 µM. For the same molecule, the selectivity ratio is 19 in [2] and more than 71.4 in series [5]. Further, in series [6], the inhibition of growth at 50 µM was found to be 94.8%. Besides, the inhibition of growth at 5 µM worked out at 33.1% in [8] and 43.4% in series [9]. In [10], the inhibition of growth at 15 µM amounted to 87.2%.
Turning to `N=C(NOC(=O)Nc1ccccc1)c1ccc2nonc2c1`, the inhibition of growth at 50 µM in [6] stood at 70.1%. Also, the inhibition of growth at 15 µM in series [10] was found to be 24.2%.
Consider `Cc1ccc(NC(=O)O/N=C(\N)c2ccc3nonc3c2)cc1`, for which, in [6], the inhibition of growth at 50 µM is 64.1%.
Turning to `N/C(=N\OC(=O)Nc1ccccc1)c1ccc2[nH]ccc2c1`, the inhibition of growth at 50 µM in [6] was 91.9%. Further, the inhibition of growth at 15 µM in series [10] is 21.6%.
For the molecule `N/C(=N\OC(=O)Nc1ccccc1)c1ccc2ccccc2c1`, the inhibition of growth at 50 µM in series [6] amounted to 98.8%. The inhibition of growth at 15 µM in series [10] was found to be 24.9%.
On the same counts, the results for `N/C(=N\OC(=O)Nc1ccccc1)c1ccc2occc2c1` are 95.2% and 48%.
Consider `N/C(=N\OC(=O)Cc1ccccc1)c1ccc2nonc2c1`, for which the inhibition of growth at 50 µM in series [6] worked out at 22.4%.
Same read-out and setting: for `N/C(=N\OC(=O)NC1CCCCC1)c1ccc2nonc2c1` the value was 43.9%.
Turning to `COc1cccc(NC(=O)O/N=C(\N)c2ccc3nonc3c2)c1`, the inhibition of growth at 50 µM in series [6] worked out at 71.4%. In series [10], the inhibition of growth at 15 µM was 31.8%.
For `Cc1cccc(NC(=O)O/N=C(\N)c2ccc3nonc3c2)c1`, in that order: 67.2% and 44.6%.
For `N/C(=N\OC(=O)Nc1ccc(Cl)cc1)c1ccc2nonc2c1`, in series [6], the inhibition of growth at 50 µM is 44%.
Same read-out and setting: for `N/C(=N\OC(=O)Oc1ccccc1)c1ccc2nonc2c1` the value was 26.5%; for `Cc1ccccc1NC(=O)O/N=C(\N)c1ccc2nonc2c1`, 42%.
Same read-out and setting: under `N/C(=N\OC(=O)c1ccccc1)c1ccc2nonc2c1` stands 51.1%; under `N/C(=N\OC(=O)Nc1cccc(C(F)(F)F)c1)c1ccc2nonc2c1`, 51.4%.
On the same count and under the same terms, for `N/C(=N\OC(=O)Nc1ccccc1)c1ccc2[nH]cnc2c1` the value was 72%; for `N/C(=N\OC(=O)Nc1ccccc1Cl)c1ccc2nonc2c1`, 29.6%.
Take `N/C(=N\OC(=O)Nc1ccccc1)c1ccc2c(c1)OCO2`: the inhibition of growth at 50 µM in [6] stood at 93%. In series [10], the inhibition of growth at 15 µM amounted to 33.9%.
For the molecule `COc1ccccc1NC(=O)O/N=C(\N)c1ccc2nonc2c1`, the inhibition of growth at 50 µM in series [6] turned out to be 38%.
Still for that read-out and setting: for `N/C(=N\OC(=O)Nc1ccc(C(F)(F)F)cc1)c1ccc2nonc2c1` the value was 51.7%.
Turning to `N/C(=N\OC(=O)Nc1ccccc1)c1ccccc1`, the inhibition of growth at 50 µM in [6] is 78.4%. In addition, in series [10], the inhibition of growth at 15 µM was 5.4%.
Regarding `N/C(=N\OC(=O)Nc1ccccc1C(F)(F)F)c1ccc2nonc2c1`, the inhibition of growth at 50 µM in [6] came out at 42.1%.
`O=C(Nc1ccccc1)ONC(=O)c1ccc2nonc2c1`: the EC50 is more than 300 µM in series [1], 8.1 µM in series [3] and 33.7 µM in series [7]. Also, the selectivity ratio in series [2] is 4.2; in series [5] it was more than 37. The inhibition of growth at 50 µM in series [6] came out at 96.2%. Further, the inhibition of growth at 5 µM came to 19.9% in [8] and 54.6% in [9]. Also, the inhibition of growth at 15 µM in [10] was determined as 68.2%.
`COc1ccc(NC(=O)O/N=C(\N)c2ccc3nonc3c2)cc1`: the inhibition of growth at 50 µM in series [6] is 46%.
For `N/C(=N\OC(=O)Nc1ccccc1)c1ccc2sccc2c1`, the inhibition of growth at 50 µM in series [6] is 97.9%. Further, the inhibition of growth at 15 µM in [10] is 35.2%.
Consider `C[C@@H]1[C@H](O)[C@@H](C)/C=C/C=C/C=C/C=C/C=C/C=C/C=C/[C@H](O[C@@H]2O[C@H](C)[C@@H](O)[C@H](N)[C@@H]2O)C[C@@H]2O[C@](O)(C[C@@H](O)C[C@@H](O)[C@H](O)CC[C@@H](O)C[C@@H](O)CC(=O)O[C@H]1C)C[C@H](O)[C@H]2C(=O)O` [AMPHOTERICIN B], for which the results for the inhibition of growth at 1 µM in series [11] and in [12] were 99.7% and more than 90%, respectively. Moreover, the values for the EC50 in series [1], in series [4] and in [7] were 2.2 µM, 0.11 µM and 2.1 µM, respectively.

Usually EC50 stands for the concentration at which the effect is half-maximal.
